Laboratory results from paper PMC4891694, “Insights into the role of sulfated glycans in cancer cell adhesion and migration through use of branched peptide probe” (Scientific Reports, 2016).

Columns and labels:
breast cancer in mice = settings: orthotopic breast cancer, versus unconjugated paclitaxel; cited from earlier work
[1] = test system: cancer cell lines and human cancer surgical samples; design: method as in 2 sources, one per row (each row's own in cited_ref): ref 1-6 = [1]; PMID 17766836; doi:10.1158/1535-7163.MCT-07-0164; Falciani C. et al. Synthesis and biological activity of stable branched neurotensin peptides for tumor targeting . Mol. Cancer Ther. 6 , 2441 − 2448 ( 2007 ). 17766836 10.1158/1535-7163.MCT-07-0164 || [2]; PMID 20222099; doi:10.1002/cmdc.200900527; Falciani C. et al. Design and in vitro evaluation of branched peptide conjugates: turning nonspecific cytotoxic drugs into tumor-selective agents . ChemMedChem. 5 , 567 − 574 ( 2010 ). 20222099 10.100 || [3]; PMID 20578987; doi:10.2174/156800910793605875; Falciani C. et al. Modular branched neurotensin peptides for tumor target tracing and receptor-mediated therapy: a proof-of-concept . Curr. Cancer Drug Targets. 10 , 695 − 704 ( 2010 ). 20578987 10.21 || [4]; PMID 21370475; doi:10.1002/cmdc.201000463; Falciani C. et al. Target-selective drug delivery through liposomes labeled with oligobranched neurotensin peptides . ChemMedChem. 6 , 678 − 685 ( 2011 ). 21370475 10.1002/cmdc.201000463 || [5]; PMID 25984525; doi:10.1155/2015/173507; Brunetti J. et al. Neurotensin branched Peptide as a tumor-targeting agent for human bladder cancer . Biomed Res Int. 2015 , 173507 , doi: 10.1155/2015/173507 ( 2015 ). 25984525 PMC4423026 ||| ref 7 = [7]; PMID 23713525; doi:10.1021/jm400329p; Falciani C. et al. Cancer selectivity of tetrabranched neurotensin peptides is generated by simultaneous binding to sulfated glycosaminoglycans and protein receptors . J Med Chem. 56 , 5009 – 18 ( 201); settings: compared with NT4; cited from earlier work
[2] = test system: NT4 binding to membrane receptors on PANC-1 cells; test: Flow cytometry, inhibition of NT4 binding to PANC-1 cells by GAGs; assay type: cell-based, human; settings: 1 μM biotinylated NT4, 100 μg/ml GAGs, PBS with 5 mM EDTA and 0.5% BSA, Streptavidin-FITC
[3] = test system: NT4 binding to endocytic receptors; design: method as in PMID 23713525; settings: cited from earlier work
[4] = test system: NT4 binding to PgsA-745 cells; test: Flow cytometry, inhibition of NT4 binding to PgsA-745 cells by heparin; assay type: cell-based, Chinese hamster; settings: 1 μM biotinylated NT4, 100 μg/ml heparin
Experimental: PANC-1 human pancreas adenocarcinoma, CHO-K1 Chinese hamster ovary cell and PgsA-745 Chinese hamster ovary cell mutant deficient in xylosyltransferase (UDP-D-xylose: serine-1,3-D-xylosyltransferase) were grown in DMEM Medium (for PANC-1 and CHO-K1) and F12 K Medium supplemented with 10% fetal bovine serum, 200 μg/ml glutamine, 100 μg/ml streptomycin and 60 μg/ml penicillin. Cell lines were purchased from ATCC (The Global Bioresource Center).
All experiments were performed using 1 × 10^5 PANC-1, CHO-K1 or PgsA-745 cells in 96-well U-bottom plates. […] Cells were finally incubated with 1 μg/ml Streptavidin-FITC. All dilutions were performed in PBS, containing 5 mM EDTA and 0.5% BSA.
10000 events were analyzed in a BD FACS Calibur (Becton Dickinson, NJ USA). Results were analyzed by FCS Express 4 Plus software.

CC(=O)O[C@H]1C(=O)[C@@]2(C)[C@H]([C@H](OC(=O)c3ccccc3)[C@]3(O)C[C@H](OC(=O)[C@H](O)[C@@H](NC(=O)c4ccccc4)c4ccccc4)C(C)=C1C3(C)C)[C@]1(OC(C)=O)CO[C@@H]1C[C@@H]2O [unconjugated paclitaxel, paclitaxel]
tumor regression (breast cancer in mice): not achieved with unconjugated paclitaxel

native neurotensin: monomeric native neurotensin
high cancer selectivity [1]: not shared by monomeric native neurotensin

hyaluronic acid
inhibition of NT4 binding (in words) [2]: neither binding to NT4 or inhibition of NT4 binding to cancer cell membranes was detected

heparin
inhibition of NT4 binding to endocytic receptors [3]: completely inhibited by heparin
inhibition of NT4 binding (in words) [2]: complete inhibition
inhibition of NT4 binding to PgsA-745 cells [4]: still completely inhibited by heparin
